Results published in paper PMC4061482 (Frontiers in Oncology, 2014).

Experiments:
22RV1 cells [1] = assay: Testosterone ELISA after androstenedione stimulation; format: cell-based, human
Experimental: Cells were seeded into 96-well plates in hormone-deprived media at appropriate seeding densities [10,000–50,000 cells per well for all lines except HCC1500 (100,000 cells per well; 11β-PGF2α ELISA)] to reach approximately 70% confluency at the time of sampling and were left to settle for 24 h at 37°C and 5% CO2. […] removed for analysis of 11β-PGF2α, testosterone, or 17β-estradiol by ELISA as per manufacturer’s instructions (11β-PGF2α and testosterone ELISA, Cayman Chemical Company; 17β-estradiol ELISA, Oxford Biomedical Research), and cells were fixed for sulforhodamine B analysis as described below. Each ELISA plate was read at a wavelength of 405 nm (11β-PGF2α and testosterone) or 650 nM (17β-estradiol) on a SpectraMax M2 microplate reader (Molecular Devices) and quantitated against a standard curve generated in hormone-deprived culture media. Cross-reactivity to PGD2, androstenedione, or estrone was accounted for by adding these to cell-free wells of each ELISA plate.
Since AKR1C3 has been implicated in the development of CRPC because of its ability to produce testosterone intratumorally from circulating androstenedione, we determined testosterone concentrations in the prostate cancer cell lines and known high and low AKR1C3-expressing cells after stimulation with androstenedione for 24 h.

22RV1 cells [2] = assay: PSA concentration after androstenedione stimulation; format: cell-based; details: Homo sapiens, 10 nM androstenedione, 24 h, read-out: Inhibition of PSA formation attributable to androstenedione stimulation
Experimental: (§1) Cells were seeded at 20,000 cells per well (LAPC4, LAPC4 AKR1C3) or 50,000 cells per well (22RV1) into 96-well plates in hormone-deprived media and left to settle for 24 h at 37°C and 5% CO2. […] The plates were returned to the incubator for 24 h, before the cell supernatant was removed and frozen for PSA analysis. Determination of total PSA concentration was carried out at LabPLUS, Auckland City Hospital, by immunoassay on a Cobas® e601 analyzer according to manufacturer’s instructions (Roche).
(§2) Next, PSA expression was determined in the CRPC cell lines that were sensitive to SN33638-mediated inhibition of testosterone (LAPC4 AKR1C3 and 22RV1 with LAPC4 wild-type cells acting as a negative control) as a biomarker of AR activity. […] Androstenedione stimulation promoted PSA production in all three cell lines, with the highest PSA levels observed in LAPC4 AKR1C3 cells.

LAPC4 AKR1C3 cells [3] = assay: as above; format: cell-based; details: Homo sapiens, LAPC4, 24 h, read-out: Inhibition of PSA formation attributable to androstenedione stimulation
Experimental: as §1, §2

22RV1 cells [4] = assay: Cell proliferation (sulforhodamine B), 5 days; format: cell-based, human; details: 10 μM
Experimental: (§3) Cells were seeded into 96-well plates in hormone-deprived media at appropriate seeding densities (5000–20,000 cells per well) to reach approximately 70% confluency at the time of sampling and left to settle for 48 h at 37°C and 5% CO2. […] The plates were returned to the incubator for 5 days before fixing in 10% trichloroacetic acid (Merck Millipore) at 4°C for 1 h and staining with 0.4% sulforhodamine B (Sigma-Aldrich) in 1% acetic acid for 30 min in the dark at room temperature. Plates were washed in 1% acetic acid, dried, and incubated with unbuffered Tris base (10 mM; Serva) for 30 min on a plate shaker in the dark to solubilize the stain. The plates were read on a BioTek EL808 microplate reader at an absorbance of 490 nm with a reference wavelength of 450 nm.
(§4) Finally, we investigated whether inhibiting AKR1C3-dependent testosterone or 17β-estradiol production could prevent androstenedione- or estrone-stimulated cell proliferation in CRPC or ER-positive breast cancer cells.

LAPC4 AKR1C3 cells [5] = assay: Cell proliferation (sulforhodamine B), 5 days; format: cell-based, human
Experimental: as §3, §4

LAPC4 wild-type cells = assay: Cell proliferation (sulforhodamine B), 5 days; format: cell-based, human; details: 10 μM
Experimental: as §3, §4

MCF7 cells = assay: Cell proliferation (sulforhodamine B), 5 days; format: cell-based, human
Experimental: as §3, §4
(§5) Neither androstenedione nor estrone-stimulated cell proliferation in the HCT116 AKR1C3 and wild-type cell lines (data not shown).

T47D AKR1C3 cells = assay: Cell proliferation (sulforhodamine B), 5 days; format: cell-based, human; details: 10 μM, estrone up to 10 nM
Experimental: as §3, §5

T47D cells = assay: Cell proliferation (sulforhodamine B), 5 days; format: cell-based, human; details: 10 μM, estrone up to 10 nM
Experimental: as §3, §5

all cell lines = assay: Unstimulated cell proliferation (sulforhodamine B), 5 days, all cell lines; format: cell-based, human; details: 10 μM, all cell lines except MCF7
Experimental: as §3, §4

other AKR1C isoforms = assay: Inhibition of isolated AKR1C enzymes; format: biochemical; details: 10 μM; unpublished data
AKR1C3 = system: AKR1C3; set-up: method as in PMID 23454516; details: cited from earlier work

CC1CCCCN1S(=O)(=O)c1ccc(N2CCCC2=O)cc1 (stereo not shown) [SN33638]
Effect on testosterone levels (22RV1 cells [1]; 5 days after stimulation with up to 10 nM androstenedione, data not shown): no inhibitory effect | inhibition at 10 µM (22RV1 cells [1]; Homo sapiens, 22Rv1, 10 μM, 28 nM androstenedione, 24 h, read-out: Inhibition of testosterone levels): 50.8% | inhibition at 10 µM (22RV1 cells [2]): 44.9% | inhibition at 10 µM (LAPC4 AKR1C3 cells [3]; 1 nM androstenedione): 90.8% | inhibition at 10 µM (LAPC4 AKR1C3 cells [3]; 10 nM androstenedione): 57.4% | Effect on androstenedione-stimulated cell proliferation (22RV1 cells [4]): no effect | Reduction in androstenedione-stimulated cell proliferation (LAPC4 AKR1C3 cells [5]; 10 μM, 1 nM androstenedione, non-significant): 45.9% | inhibition at 10 µM (LAPC4 AKR1C3 cells [5]; Homo sapiens, LAPC4, 120 h, 0.1 nM androstenedione, read-out: Inhibition of androstenedione-stimulated cell proliferation): 101% | Effect on androstenedione-stimulated cell proliferation (LAPC4 wild-type cells): no effect | Reduction of unstimulated cell proliferation (MCF7 cells; 10 μM): 7.3% | inhibition at 10 µM (MCF7 cells; Homo sapiens, MCF7, 120 h, 10 nM estrone, read-out: Inhibition of estrone-stimulated cell proliferation): 14.9% | Effect on estrone-stimulated cell proliferation (T47D AKR1C3 cells): not significantly inhibited | Effect on estrone-stimulated cell proliferation (T47D cells): not significantly inhibited | Effect on unstimulated cell proliferation (all cell lines): no effect | Inhibition against each isolated enzyme (other AKR1C isoforms) (other AKR1C isoforms): < 14% | Potency against AKR1C3 (AKR1C3): low nanomolar
